US20250049036A1 (priority 2021, published 2025)

Experiments:
[1] = tested on: Botrytis cinerea; assay: Botrytis cinerea test on tomato, preventive, greenhouse; assay type: in vivo; conditions: preventive spray on bean/chili plants (heading: tomato), inoculated one day after treatment, read-out: control (efficacy, disease severity) compared to the untreated check
[2] = tested on: Parastagonospora nodorum; assay: Parastagonospora nodorum (PARANO) spore growth inhibition in liquid medium, 96-well microtiter plate, OD 600; assay type: cell-based; conditions: spore suspension in PDB liquid medium, 18° C., 5-6 days, OD at 600, read-out: control compared to the untreated check
How it was run: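 Read-out is percent growth inhibition from OD at 600 after 5-6 days at 18° C. Compounds, dissolved in DMSO, were diluted in potato dextrose broth and combined in equal volume with a 10^5 spores/ml suspension of PARANO.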

[3] = tested on: Alternaria solani; assay: Alternaria solani test in tomato, preventive, greenhouse; assay type: in vivo; conditions: preventive spray on tomato, inoculated one day after treatment, read-out: control (efficacy, disease severity) compared to the untreated check
Protocol: The respective compound was dissolved in 2% dimethyl sulfoxide/acetone and then mixed with water containing an emulsifier to the calibrated spray volume of 30 mL. Each spray solution was poured into a spray bottle for further application.
(§1) To test the preventive activity of a compound, healthy young tomato plants, raised in the greenhouse, were sprayed with the active compound preparation at the stated application rate inside the spray cabinets using hollow cone nozzles. One day after treatment, the plants were inoculated with a spore suspension containing 0.24×10^6 Alternaria solani inoculum. The inoculated plants were then kept in a greenhouse chamber at 22-24° C. temperature and 90-95% relative humidity for disease expression.
(§2) A visual assessment of the compound's performance was carried out by rating the disease severity (0 100% scale) on treated plants 3, 7, 10 and 15 days after application. Efficacy (% control) of the compound was calculated by comparing the disease rating in the treatment with the one of the untreated control. The treated plants were also assessed for plant damage by recording symptoms like necrosis, chlorosis and stunting.

[4] = tested on: Phakopsora pachyrhizi; assay: Phakopsora pachyrhizi test on soybean, preventive, greenhouse; assay type: in vivo; conditions: preventive spray on soybean, inoculated one day after treatment, read-out: control (efficacy, disease severity) compared to the untreated check
How it was run: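 Greenhouse-grown young soybean plants were sprayed with compound (2% DMSO/acetone, emulsifier in water) at the stated rate. One day later they were inoculated with 2×10^5 P. pachyrhizi inoculum and held at 22-24 °C, 80-90% relative humidity for disease development.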

[5] = tested on: Venturia Inequalis; assay: Venturia inequalis (VENTIN) spore growth inhibition in liquid medium, 96-well microtiter plate, OD 600; assay type: cell-based; conditions: spore suspension in PDB liquid medium, 18° C., 15-18 days, OD at 600, read-out: control compared to the untreated check
How it was run: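 Venturia inequalis spores (10^5 spores/ml suspension) were grown in potato dextrose broth with test compounds dissolved in DMSO, mixing equal volumes of compound solution and spore suspension. Plates were incubated at 18 °C for 15–18 days. Growth was read as OD600 and converted to percent inhibition.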

[6] = tested on: Colletotrichum capsici; assay: Colletotrichum capsici (anthracnose) mycelial radial growth on potato dextrose agar; assay type: cell-based; conditions: Colletotrichum truncatum, 168 h, 25° C., seven days, read-out: control compared to the untreated check
How it was run: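 Compounds in 0.3% DMSO were mixed into potato dextrose agar, and each plate was seeded with a 5 mm mycelial disc from an actively growing culture. Plates were incubated at 25° C and 60% relative humidity for seven days. Radial growth was compared with untreated control.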

[7] = tested on: Fusarium culmorum; assay: Fusarium culmorum test on wheat, preventive, greenhouse; assay type: in vivo; conditions: preventive spray on wheat, inoculated one day after treatment, read-out: control (efficacy, disease severity) compared to the untreated check
Protocol: The respective compound was dissolved in 2% dimethyl sulfoxide/acetone and then mixed with water containing an emulsifier to a calibrated spray volume of 30 mL. Each spray solution was poured into a spray bottle for further application.
as §1, with “wheat” for “tomato”, “after the” for “after”, “2×10^6 Fusarium culmorum” for “0.24×10^6 Alternaria solani”, “24°” for “22-24°”, “80-90%” for “90-95%”
as §2

[8] = tested on: Pyricularia oryzae; assay: microbe, parasite or virus in culture; assay type: cell-based; conditions: 168 h, read-out: control compared to the untreated check
[9] = tested on: Phytophthora infestans; assay: whole plant or invertebrate; assay type: in vivo, Phytophthora infestans on tomato; conditions: in Solanum lycopersicum, read-out: control (efficacy, disease severity) compared to the untreated check
[10] = tested on: Botrytis cinerea; assay: Botrytis cinerea (gray mold) mycelial radial growth on potato dextrose agar; assay type: cell-based; conditions: 168 h, 22° C., seven days, read-out: control compared to the untreated check
How it was run: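 Compounds in 0.3% DMSO were mixed into potato dextrose agar, and plates were seeded with 5 mm mycelial discs from actively growing virulent culture. After seven days at 22 °C and 90% relative humidity, radial growth was measured relative to untreated control.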

[11] = tested on: Phytophthora infestans; assay: microbe, parasite or virus in culture; assay type: cell-based; conditions: 168 h, read-out: control compared to the untreated check
[12] = tested on: Botrytis cinerea; assay: Botrytis cinerea liq. (BOTRCI) spore growth inhibition in liquid medium, 96-well microtiter plate, OD 405 nm; assay type: cell-based; conditions: spore suspension in YBA liquid medium, 22° C., 5-6 days, OD at 405 nm, read-out: control compared to the untreated check
How it was run: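 Spore suspension of B. cinerea (10^4 spores/ml) in YBA liquid medium mixed 1:1 with compound diluted from DMSO. Incubated at 22° C. for 5-6 days. Growth read as OD 405 nm; percent inhibition derived from treatment, untreated-control and blank readings.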

Cc1ccccc1C(=O)OCC(C)(C)NC(=O)c1cnc2c(c1)CCCC2 [Compound 151, 2-methyl-2-(5,6,7,8-tetrahydroquinoline-3-carboxamido)propyl 2-methylbenzoate]
≥ 70%: pest or weed control at 500 ppm [1] | inhibition of growth at 300 ppm [2] | pest or weed control at 500 ppm [3] | pest or weed control at 500 ppm [4]

Cc1ccc(CC(C)(C)NC(=O)c2cnc3c(c2)cc(C)n3C)cc1 [Compound 102, 1,2-dimethyl-N-(2-methyl-1-(p-tolyl)propan-2-yl)-1H-pyrrolo[2,3-b]pyridine-5-carboxamide]
≥ 70%: pest or weed control at 500 ppm [1] | inhibition of growth at 300 ppm [2] | inhibition of growth at 300 ppm [5] | pest or weed control at 500 ppm [4] | inhibition of growth at 300 ppm [6] | pest or weed control at 500 ppm [7]

Cc1cc2cc(C(=O)NC(C)(C)Cc3ccccc3F)cnc2n1C [Compound 103, N-(1-(2-fluorophenyl)-2-methylpropan-2-yl)-1,2-dimethyl-1H-pyrrolo[2,3-b]pyridine-5-carboxamide]
≥ 70%: inhibition of growth at 300 ppm [2] | pest or weed control at 500 ppm [4] | inhibition of growth at 300 ppm [6] | pest or weed control at 500 ppm [7]

CC(C)CC(C)(Cc1ccccc1)NC(=O)c1cnc2c(c1)CCCC2 (stereo not shown) [Compound 44, N-(2,4-dimethyl-1-phenylpentan-2-yl)-5,6,7,8-tetrahydroquinoline-3-carboxamide]
≥ 70%: pest or weed control at 500 ppm [1] | inhibition of growth at 300 ppm [2] | inhibition of growth at 300 ppm [8] | inhibition of growth at 300 ppm [5] | pest or weed control at 500 ppm [4] | inhibition of growth at 300 ppm [6] | pest or weed control at 500 ppm [7]

CC(c1ccccc1F)C(C)(C)NC(=O)c1cnc2c(ccn2C)c1 (stereo not shown) [Compound 3, N-(3-(2-fluorophenyl)-2-methylbutan-2-yl)-1-methyl-1H-pyrrolo[2,3-b]pyridine-5-carboxamide]
≥ 70%: pest or weed control at 500 ppm [9] | inhibition of growth at 300 ppm [8] | pest or weed control at 500 ppm [3] | inhibition of growth at 300 ppm [6]

CC(Cc1ccccc1)C(C)(C)NC(=O)c1cnc2c(ccn2C)c1 (stereo not shown) [Compound 80, N-(2,3-dimethyl-4-phenylbutan-2-yl)-1-methyl-1H-pyrrolo[2,3-b]pyridine-5-carboxamide]
≥ 70%: inhibition of growth at 300 ppm [2] | pest or weed control at 500 ppm [9] | inhibition of growth at 300 ppm [5] | pest or weed control at 500 ppm [3] | inhibition of growth at 300 ppm [6]

CCC(O)(CC)C(NC(=O)c1cnc2ccsc2c1)c1ccc(F)cc1 (stereo not shown) [Compound 132, N-(2-ethyl-1-(4-fluorophenyl)-2-hydroxybutyl)thieno [3,2-b]pyridine-6-carboxamide]
≥ 70%: inhibition of growth at 300 ppm [5] | pest or weed control at 500 ppm [3] | pest or weed control at 500 ppm [4]

CC(C)CC(C)(Cc1ccccc1)NC(=O)c1cnc2cc[nH]c2c1 (stereo not shown) [Compound 73, N-(2,4-dimethyl-1-phenylpentan-2-yl)-1H-pyrrolo[3,2-b]pyridine-6-carboxamide]
≥ 70%: inhibition of growth at 300 ppm [10] | pest or weed control at 500 ppm [1] | inhibition of growth at 300 ppm [11] | inhibition of growth at 300 ppm [2] | pest or weed control at 500 ppm [9] | inhibition of growth at 300 ppm [5] | pest or weed control at 500 ppm [3] | inhibition of growth at 300 ppm [6] | inhibition of growth at 300 ppm [12]

CC(C)CC(C)(Cc1ccccc1)NC(=O)c1cnc2c(c1)CCC2 (stereo not shown) [Compound 62, N-(2,4-dimethyl-1-phenylpentan-2-yl)-6,7-dihydro-5H-cyclopenta[b]pyridine-3-carboxamide]
≥ 70%: pest or weed control at 500 ppm [1] | pest or weed control at 500 ppm [9] | inhibition of growth at 300 ppm [5] | pest or weed control at 500 ppm [4] | inhibition of growth at 300 ppm [6] | pest or weed control at 500 ppm [7]

CC(C)CC(C)(Cc1ccccc1)NC(=O)c1cnc2c(c1)OCCN2C (stereo not shown) [Compound 81, N-(2,4-dimethyl-1-phenylpentan-2-yl)-4-methyl-3,4-dihydro-2H-pyrido[3,2-b] [1,4]oxazine-7-carboxamide]
≥ 70%: pest or weed control at 500 ppm [1] | inhibition of growth at 300 ppm [2] | pest or weed control at 500 ppm [9] | inhibition of growth at 300 ppm [8] | inhibition of growth at 300 ppm [5] | inhibition of growth at 300 ppm [6] | pest or weed control at 500 ppm [7]

Cc1cc2cc(C(=O)NC(C)(C)Cc3ccc(Cl)cc3)cnc2n1C [Compound 101, N-(1-(4-chlorophenyl)-2-methylpropan-2-yl)-1,2-dimethyl-1H-pyrrolo[2,3-b]pyridine-5-carboxamide]
≥ 70%: inhibition of growth at 300 ppm [10] | inhibition of growth at 300 ppm [2] | pest or weed control at 500 ppm [4] | inhibition of growth at 300 ppm [6] | pest or weed control at 500 ppm [7] | inhibition of growth at 300 ppm [12]

COc1nc2c(ccn2C)cc1C(=O)NC(C)(Cc1ccccc1)CC(C)C (stereo not shown) [Compound 92, N-(2,4-dimethyl-1-phenylpentan-2-yl)-6-methoxy-1-methyl-1H-pyrrolo[2,3-b]pyridine-5-carboxamide]
≥ 70%: pest or weed control at 500 ppm [1] | inhibition of growth at 300 ppm [11] | pest or weed control at 500 ppm [7]

CC(C)(Cc1ccccc1)NC(=O)c1cnc2c(c1)CCC2 [Compound 67, N-(2-methyl-1-phenylpropan-2-yl)-6,7-dihydro-5H-cyclopenta[b]pyridine-3-carboxamide]
≥ 70%: inhibition of growth at 300 ppm [10] | pest or weed control at 500 ppm [1] | inhibition of growth at 300 ppm [2] | pest or weed control at 500 ppm [9] | inhibition of growth at 300 ppm [5] | pest or weed control at 500 ppm [4] | pest or weed control at 500 ppm [7] | inhibition of growth at 300 ppm [12]

C=C(C)CC(C)(COc1ccccc1F)NC(=O)c1cnc2c(ccn2C)c1 (stereo not shown) [Compound 155, N-(1-(2-fluorophenoxy)-2,4-dimethylpent-4-en-2-yl)-1-methyl-1H-pyrrolo[2,3-b]pyridine-5-carboxamide]
≥ 70%: inhibition of growth at 300 ppm [2] | inhibition of growth at 300 ppm [5] | pest or weed control at 500 ppm [4] | inhibition of growth at 300 ppm [6] | pest or weed control at 500 ppm [7]

CC(C)(Cc1ccccc1)NC(=O)c1cnc2ccsc2c1 [Compound 30, N-(2-methyl-1-phenylpropan-2-yl)thieno[3,2-b] pyridine-6-carboxamide]
≥ 70%: pest or weed control at 500 ppm [1] | inhibition of growth at 300 ppm [11] | inhibition of growth at 300 ppm [8] | pest or weed control at 500 ppm [3]

CC(C)(NC(=O)c1cnc2ccsc2c1)C(O)c1ccccc1 (stereo not shown) [Compound 118, N-(1-hydroxy-2-methyl-1-phenylpropan-2-yl)thieno[3,2-b] pyridine-6-carboxamide]
≥ 70%: inhibition of growth at 300 ppm [10] | inhibition of growth at 300 ppm [2] | pest or weed control at 500 ppm [3] | inhibition of growth at 300 ppm [12]
